Assays:
Type in all cases: in vivo
cyclaoxygenase-2 (COX-2) = test: Western Blotting of COX-2 expression in brain tissue of Alzheimer's disease model mice; details: 100 mg/kg body weight/day in diet for 3 months, compared with the model group
Description: The evodiamine treatment group was administrated in the standard diet plus evodiamine in a dose of 100 mg/kg body weight/day for 3 months. The model group received a standard diet as the placebo control. […] The inflammation is one of main reasons resulting in the pathological development of Alzheimer's disease, so Evodiamine can treat Alzheimer's disease.

IL-Iβ = test: ELISA of IL-Iβ in brain tissues of Alzheimer's disease model mice; details: 100 mg/kg body weight/day in diet for 3 months, compared with the model group
Description: (§1) The evodiamine treatment group was administrated in the standard diet plus evodiamine in a dose of 100 mg/kg body weight/day for 3 months. The model group received a standard diet as the placebo control.

[1] = system: APPswe/PSΔE9 transgenic model of Alzheimer's disease; test: Morris water-maze test in Alzheimer's disease mice model; details: 100 mg/kg body weight/day in diet for 3 months; compared with the model group
Description: The evodiamine treatment group was administrated in the standard diet plus evodiamine in a dose of 100 mg/kg body weight/day for 3 months. The model group received a standard diet as the placebo control. After a three-month continuous administration, the Morris water-maze tests were performed to test the effect of evodiamine on improvement of learning and memory abilities of the Alzheimer's disease mice model.

IL-6 = test: ELISA of IL-6 in brain tissues of Alzheimer's disease model mice; details: 100 mg/kg body weight/day in diet for 3 months, compared with the model group
Description: as §1

TNF-α = test: ELISA of TNF-α in brain tissues of Alzheimer's disease model mice; details: 100 mg/kg body weight/day in diet for 3 months, compared with the model group
Description: as §1

Evodiamine
expression of the cyclaoxygenase-2 (COX-2) in the brain tissue (cyclaoxygenase-2 (COX-2)): reduced
IL-Iβ in the brain tissues (IL-Iβ): significantly decreased
learning and memory abilities (Morris water-maze) [1]: significantly improved
IL-6 in the brain tissues (IL-6): significantly decreased
TNF-α in the brain tissues (TNF-α): significantly decreased
